Data taken from patent US20240141294A1, “CGMP COMPLIANT PRODUCTION AND EXPANSION OF PLASMACYTOID DENDRITIC CELLS FROM HEMATOPOIETIC STEM AND PROGENITOR CELLS” (AARHUS UNIVERSITET, priority 2021, published 2024).

Tests used:
[1] = test system: Cord-blood derived CD34+HSPCs; assay: SR1/IL-3 deprivation during final 3 days of HSPC-pDC differentiation: cell growth and viability; format: cell-based, human
Protocol: In addition, 1 μM of the small molecule inhibitor StemRegenin 1 (SR1, […] Technologies), 20 μg/mL streptomycin and 20 U/mL penicillin (Gibco, Life Technologies) and 50 μg/mL of ascorbic acid (Sigma Aldrich) was added. Cells were cultured at 37° C., 95% humidity, and 5% CO2 for 17 days, medium was replenished every 2-4 day. […] Viability and total cell numbers during expansion and differentiation of HSPCs was determined using a TC20 Automated Cell Counter (Bio-Rad).

HSPC-pDCs = assay: SR1/IL-3 deprivation: flow cytometry of CD123 and CD303; format: cell-based, human
Protocol: Priming of HSPC-pDCs was performed as previously described [Laustsen, A., et al 2018]. […] HSPC-pDCs were primed with 250 U/mL IFN-β (PBL Assay Science) and 250 U/mL IFN-γ (Peprotech) or left unprimed. Cells were primed for 24 hours before being phenotypically and functionally characterized.
Flow cytometry was used to immunophenotype pDCs. Briefly, cells were spun down and resuspended in 25 μL TruStain FcBlock (Biolegend) diluted in cold FACS buffer (PBS with 2% FCS and 1 mM EDTA) and incubated cold for 15 minutes. Cells were subsequently stained 25 μL with the following antibodies: APC anti-human Lineage Cocktail (CD3 (UCHT1), CD14 (HCD14), CD16 (3G8), CD19 (HIB19), CD20 (2H7) and CD56 (HCD56), 348801, BioLegend), FITC anti-human CD11c (3.9, 301604, BioLegend), BV421 CD14 (HCD14, 325628, BioLegend), PE CD34 (581, 343506, BioLegend), APC-eFluor780 anti-human CD123 (6H6, 47-1239-42, eBioscience), PE-Cy7 anti-human CD303 (201a, 354214, BioLegend). Cells were stained for 30 min before being washed two times in FACS buffer and finally resuspended in 200 μL FACS Buffer. Fluorescence intensities were measured using the Attune NxT Flow Cytometer equipped with 4 lasers (405 nm, 488 nm, 561 nm, and 638 nm). Data analysis was done using FlowJo (Version 10.8.1, Tree Star, Ashland, OR, USA.

In the case of CC(C)n1cnc2c(NCCc3ccc(O)cc3)nc(-c3csc4ccccc34)nc21 [SR1, StemRegenin 1], the “fold change in number of cells in culture after the 3 days” value ([1]; named supplement removed day 14-17, standard condition 2.31 (±0.49)) is reported as 2.38 (±0.23), the “difference in the number of cells in culture between day 14 and 17” value ([1]; named supplement removed from media day 14-17, standard condition 22.5×10^6 (±2.15×10^6)) is reported as 25.3×10^6 (±3.12×10^6) cells and the CD303 surface expression (HSPC-pDCs; SR1 removed from media vs standard condition) is reported as “no apparent difference”. For the same molecule, the CD123 surface expression (HSPC-pDCs; SR1 removed from media, standard culturing condition MEI 1938) was 988 (±391) MEI.
